Experimental data reported in patent US11992499B2, “Quinoline derivatives for use in the treatment of inflammation diseases” (ABIVAX, priority 2018, dated 2024).

How the values were obtained:
[1] = tested on: monocrotaline model of pulmonary arterial hypertension; test: Rat monocrotaline model of pulmonary arterial hypertension: mean pulmonary pressure; type: in vivo; settings: female rat, MCT, 50 mg/kg BID gavage Day 7 to Day 28, n = 11
Description: • 1. The experimental trace to be analyzed is opened in Clampfit. • 2. Right atria pressure is recorded for 1 minute • 3. PAP recorded continuously for at least 1 minute or until loss of signal, is used to extract the mean, diastolic, and systolic pulmonary pressure. • 4. The systemic arterial pressure (SAP) recorded continuously is used to extract the mean, diastolic and systolic arterial pressure. • 5. At the end of the hemodynamic parameters recording, the right and left ventricle including the septum and the lung lobes is excised to determine wet weights. • 6. Each parameter is compiled for each group and presented in bar graphs with appropriate statistical analysis.
The appropriate amount of monocrotaline is weighed and ⅓ of the correct volume of 1.0N HCl is added and mixed to ensure monocrotaline solubilisation. The solution is then neutralized with ⅓ of the correct volume of 1.0 N NaOH. The pH of the solution is checked with a pH indicator paper/strip or an electronic pH meter and adjusted to neutral as necessary; the final volume is completed with water for injection to obtain a solution of 20 mg/mL. The monocrotaline solution is injected subcutaneously, over the shoulders, into the loose skin over the neck, to each rat at 3 mL/kg of body weight (dose is 60 mg/kg).
Compound A was administered as a suspension in the vehicle. To reach the required concentrations, compound A was grounded to a fine powder, using a mortar and pestle, and then mixed with 20% (final volume) of vehicle A1 until a suspension was achieved. 80% of vehicle A2 was then added to the suspension under magnetic stirring.
The appropriate amount of Sildenafil is weighed and appropriate volume of distillated water is added to obtain suspension at 5 mg/mL. The suspension is mixed with a stir bar for 30-60 minutes until a homogenous suspension is achieved. Care is taken to maintain a uniform suspension (stirring continuously) whilst doses are being drawn up into gavage syringes. One gavage syringe is filled at a time and administered before filling the next syringe. The solutions are stored refrigerated at 2 to 8° C. and protected from light. The expiration date is set at 7 days after preparation.
Animals from Groups 2 to 5 (see Table 13) receive a single subcutaneous injection of monocrotaline (60 mg/kg) solution on Day 0 and returned to their cages. Animals from Group 1 receive one subcutaneous injection vehicle for MCT on Day 0 and returned to their respective cages.
(§1) Treatment with the compound A, sildenafil or vehicle is administered as of Day 7 (Groups 2-5) as scheduled and described in Table 13. The Groups 2-4 receive a single dose per day. The reference group 5 receives sildenafil twice a day. Food and water are given ad libitum. Daily observation of the behaviour and general health status of the animals is done. Weekly body weight is taken.
Surgical Instrumentation and Measurement of Hemodynamic and Functional Parameters in Efficacy Study Animals • 1. On the selected day of surgery, rats are anaesthetized with a mixture of 2 to 2.5% isoflurane USP (Abbot Laboratories, Montreal, Canada) in oxygen, and placed on a heating pad to maintain body temperature. • 2. Rats are tracheotomized and immediately ventilated by means of a positive-pressure rodent respirator set at ≈10 ml/kg bodyweight at a frequency of 65-70 strokes/min. • 3. Lead II ECG contact electrodes is placed on the rat to continuously monitor the ECG during the surgical procedure. • 4. A cannula connected to a pressure transducer is inserted into the left femoral artery to measure the arterial blood pressure. • 5. A cannula connected to a pressure transducer is inserted into the right atria through the right jugular vein to measure the right atria pressure. • 6. The heart is exposed through a sternotomy and a 20GA 1.16 in Insyte is introduced into the right ventricle and rapidly hooked up to a saline filled PE-50 catheter connected to a transducer. • 7. […]

[2] = tested on: Sugen hypoxia model; test: Rat Sugen hypoxia model of pulmonary arterial hypertension: mean pulmonary pressure; type: in vivo; settings: SuHx, 50 mg/kg BID gavage Day 22 to Day 56
Description: Animals from Groups 2 to 5 (see Table 10) receive a single subcutaneous injection of sugen (20 mg/kg in 2 mL/kg volume) solution (10 mg/mL) on Day 0 and returned to their cages. Animals from Group 1 receive one subcutaneous injection of DMSO at 2 mL/kg (vehicle for sugen) on Day 0 and returned to their respective cages.
Groups 2-5 are placed in cages for which the controlled air is adjusted to receive a FiO2 equivalent to 0.10 (10%) using a mixture of nitrogen and ambient air controlled by the ventilated cage system. They are kept under these hypoxic conditions for 21 days. While in hypoxia, cages are cleaned and changed once a week, exposing the animals to ambient oxygen levels for less than 10 minutes. They are exposed to ambient oxygen levels from Day 22 to Day 56. Group 1 animals remain in cages exposed to ambient oxygen (normoxic) levels for 56 days. The animals are observed on a daily basis for any changes in their behaviour and general health status.
as §1, with “Day 22” for “Day 7”, “Table 10.” for “Table 13.”, “2-4 receives” for “2-4 receive”
Surgical Instrumentation and Measurement of Hemodynamic and Functional Parameters in Efficacy Study Animals • 1. On the selected day of surgery, rats are anaesthetized with a mixture of 2 to 2.5% isoflurane USP (Abbot Laboratories, Montreal, Canada) in oxygen, and placed on a heating pad to maintain body temperature. • 2. Rats are tracheotomized and immediately ventilated by means of a positive-pressure rodent respirator set at ≈10 ml/kg body weight at a frequency of 65-70 strokes/min. • 3. Lead II ECG contact electrodes is placed on the rat to continuously monitor the ECG during the surgical procedure. • 4. A cannula connected to a pressure transducer is inserted into the left femoral artery to measure the arterial blood pressure. • 5. A cannula connected to a pressure transducer is inserted into the right atria through the right jugular vein to measure the right atria pressure. • 6. The heart is exposed through a sternotomy and a 20GA 1.16 in Insyte is introduced into the right ventricle and rapidly hooked up to a saline filled PE-50 catheter connected to a transducer. • 7. Following a few seconds of right ventricular pressure recording, the Insyte is further advanced into the pulmonary artery to allow PAP recording for an additional 60 seconds. • 8. Hemodynamic parameters are recorded continuously for the duration of the procedure or until loss of PAP signal. • 9. Following hemodynamic monitoring, chest cavity is further opened to expose the lung. The muscle over the trachea is dissected away to remove the lungs and heart. Harvested tissue is rinsed with PBS to remove any excess of blood before to be weighed. • 10. For the histology and casting of the lungs, the process is as follows; 1) eight (8) rats per group is reserved to assess the histology of the left lung and is therefore be treated as described in point 12 of this section 8.2; 2) Two (2) rats per group serve to enable quantitative characterization of the three-dimensional vascular structure of the left lung and therefore is treated as described in section 8.3 for casting of the left lung. • 11. For histology, the left lobe is inflated using a 10 mL syringe filled with fixative (10% NBF) with attached blunt tip needle (23 g). Needle tip is inserted into the trachea, held in place with tied suture while another syringe is tied to the pulmonary artery. The lung is inflated gently at physiological pressure (20-25 mmHg) until all lobes are fully, uniformly, and consistently expanded (not allowing fixative to ooze through lung surface). This provides optimal vascular and airway expansion without causing excessive tissue disruption. […]

CCCc1nn(C)c2c(=O)[nH]c(-c3cc(S(=O)(=O)N4CCN(C)CC4)ccc3OCC)nc12 [Sildenafil, reference compound]
Mean Pulmonary Pressure [1]: 18.9 mmHg
Mean Pulmonary Pressure ([2]; female rats): 22.5 mmHg
Mean Pulmonary Pressure ([2]; male rats): 30.1 mmHg
